From patent US20170001956A1, “HYDROCARBYL CARBOXYBETAINE AND METHOD FOR PREVENTING HOFMANN ELIMINATION IN ALKALINE ENVIRONMENT” (NATIONAL CHUNG CHENG UNIVERSITY, priority 2015, published 2017) come the findings set out here.

The subject of this test is Staphylococcus aureus. To be noted: treated with 1M NaOH; compared to CB treated with 1M NaOH (CB-NaOH); FIG. 7.

`CC(C[N+](C)(C)CCSSCC[N+](C)(C)CC(C)C(=O)O)C(=O)O` (stereo not drawn) [α-mCB, carboxy-alpha-methyl-betaine disulfide]: the “adsorption resistance against the biofouling of S. aureus” value is reported as “better adsorption resistance”.
